Data published in patent US11959094B2, “Methods and compositions for genome editing in non-dividing cells” (Salk Institute for Biological Studies, priority 2016, dated 2024).

Test system: HEK293 GFP-correction line
Test: Targeted gene modification by HDR/HITI in HEK293 GFP-correction line
Format: cell-based
Conditions: NU7026 30 μM
From the text: Generation of HEK293 GFP-correction line. To assess the efficiency of targeted gene modification by HDR and HITI in dividing cells, a mutated GFP gene-based reporter system was established in HEK293. Briefly, pEGIP*35 was co-transfected with pMDLg/pRRE, pRSV-Rev and pMD2.G, packaged and purified as lentiviral vectors according to a published protocol Kutner, R. H., Zhang, X.-Y. & Reiser, J. Production, concentration and titration of pseudotyped HIV-1-based lentiviral vectors. Nature Protocols 4, 495-505 (2009). HEK293 cells were transduced in suspension with lentiviral EGIP*35 vector and 4 μg/ml polybrene for 1 h. After brief centrifugation to remove any residual lentiviral vector, the cells were seeded in 100 mm dishes. Three days after transduction, puromycin (1-2 μg/ml; Invitrogen) was added to the medium. After 10 days, single colonies were individually picked up and expanded as HEK293 GFP-correction line.
Transfection of in vitro cultured cells. […]
Existing methods were improved for more robust NHEJ-based targeted knock-in. […] The efficiencies of targeted gene replacement via HDR and homology-independent targeted integration (HITI) were determined by GFP and mCherry signals respectively (FIG. 1A). […]

**Q.** `O=c1cc(N2CCOCC2)oc2c1ccc1ccccc12` [NU7026] was tested. Which “effect of NHEJ inhibitor on efficiency of HITI” value did it give?
**A.** significantly decreased
